Results reported in patent publication US20250388544A1, “HETEROAROMATIC INHIBITORS OF ASTACIN PROTEINASES” (VIVORYON THERAPEUTICS N.V., priority 2019, published 2025).

What was measured:
Format in all cases: biochemical
hMeprin β = biological target: T1, hMeprin β (Homo sapiens, UniProt Q16820); experiment: Enzymatic assay, quenched peptide substrate cleavage, method B; conditions: geometric mean (geometric SD factor in parentheses); for Ki: Morrison's equation, read-out: Meprin beta Ki(app); for IC50: read-out: Meprin beta IC50
T1 sequence (Q16820 62-701): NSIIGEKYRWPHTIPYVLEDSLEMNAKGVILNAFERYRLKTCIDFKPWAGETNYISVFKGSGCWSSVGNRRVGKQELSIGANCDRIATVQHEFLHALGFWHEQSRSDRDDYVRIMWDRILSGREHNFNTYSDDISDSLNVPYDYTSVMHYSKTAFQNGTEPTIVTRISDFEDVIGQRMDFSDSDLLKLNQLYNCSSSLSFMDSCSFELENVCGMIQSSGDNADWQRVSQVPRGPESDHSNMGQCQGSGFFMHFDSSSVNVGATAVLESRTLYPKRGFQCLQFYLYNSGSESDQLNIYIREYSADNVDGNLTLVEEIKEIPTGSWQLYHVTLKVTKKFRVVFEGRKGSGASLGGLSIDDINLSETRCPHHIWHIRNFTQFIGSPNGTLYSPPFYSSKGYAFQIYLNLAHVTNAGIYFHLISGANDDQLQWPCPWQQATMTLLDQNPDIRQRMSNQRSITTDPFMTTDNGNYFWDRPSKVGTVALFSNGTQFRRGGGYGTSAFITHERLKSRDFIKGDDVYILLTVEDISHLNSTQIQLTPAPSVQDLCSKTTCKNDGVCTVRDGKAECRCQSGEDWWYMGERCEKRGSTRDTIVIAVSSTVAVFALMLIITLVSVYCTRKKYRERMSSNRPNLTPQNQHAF
Outline: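 Cleavage of internally quenched peptides was read at 340/420 nm and 30° C., with enzyme at 5e-8 to 2e-10 M and substrate at 0.15–80 μM. Inhibitor solutions contained 1% DMSO and substrate 0.5% DMSO. Method B gave Ki(app) values via Morrison's equation, with kinetics measured in at least duplicate on separate days.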

hMMP 2 = biological target: T2, hMMP 2 (Homo sapiens, UniProt P08253); experiment: Residual enzyme activity of other metalloproteases; conditions: read-out: Residual enzyme activity MMP2; for remaining activity at 10 µM: 10 μM inhibitor; for remaining activity at 200 µM: 200 μM inhibitor
T2 construct: purchased Abnova
T2 sequence (P08253 110-660): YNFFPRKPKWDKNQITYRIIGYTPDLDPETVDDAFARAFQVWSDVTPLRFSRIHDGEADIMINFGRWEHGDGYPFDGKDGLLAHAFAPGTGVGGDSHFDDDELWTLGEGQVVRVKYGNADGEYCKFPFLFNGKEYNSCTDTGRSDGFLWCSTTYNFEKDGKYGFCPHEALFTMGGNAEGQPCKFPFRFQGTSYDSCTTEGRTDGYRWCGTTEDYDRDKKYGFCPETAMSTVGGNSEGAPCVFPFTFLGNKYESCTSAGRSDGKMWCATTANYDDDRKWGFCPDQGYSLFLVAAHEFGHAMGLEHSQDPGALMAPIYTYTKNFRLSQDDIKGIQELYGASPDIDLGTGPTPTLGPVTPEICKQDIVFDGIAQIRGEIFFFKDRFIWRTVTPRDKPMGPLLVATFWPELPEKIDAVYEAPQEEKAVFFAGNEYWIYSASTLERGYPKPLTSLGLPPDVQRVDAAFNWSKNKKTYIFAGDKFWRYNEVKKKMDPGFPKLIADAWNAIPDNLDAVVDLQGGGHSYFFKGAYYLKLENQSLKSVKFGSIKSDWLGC
Procedure: (§1) A typical assay of 250 μl total volume measured in black 96 well plates consisted of 100 μl buffer, 50 μl enzyme at a final concentration of 5e-8 M to 2e-10 M, 50 μl substrate (0.15 to 80 μM, in buffer, 0.5% DMSO) and 50 μl inhibitor solution (in buffer, 1% DMSO). In case of 125 μl assay volume (black 96 half area well plates) all volumes were cut in half. Enzymatic activity of ADAMs was measured in 384 well plates with 60 μl total assay volume consisting of 20 μl inhibitor, 20 μl buffer, 10 μl enzyme and 10 μl substrate.
(§2) MMPs were activated prior to measurement by APMA (p-aminophenylmercuric acetate) treatment according to manufacturer's instructions (R&D systems).

hMMP 13 = biological target: T3, hMMP 13 (Homo sapiens, UniProt P45452); experiment: Residual enzyme activity of other metalloproteases; conditions: read-out: Residual enzyme activity MMP13; for remaining activity at 10 µM: 10 μM inhibitor; for remaining activity at 200 µM: 200 μM inhibitor
T3 construct: purchased R&D systems
Procedure: as §1, §2

hMMP 9 = biological target: T4, hMMP 9 (Homo sapiens, UniProt P14780); experiment: Residual enzyme activity of other metalloproteases; conditions: read-out: Residual enzyme activity MMP9; for remaining activity at 10 µM: 10 μM inhibitor; for remaining activity at 200 µM: 200 μM inhibitor
T4 construct: purchased R&D systems
Procedure: as §1, with “The determination of enzymatic activity was based on the cleavage of internally quenched peptide substrates. A typical” for “A typical”
as §2

hADAM 10 = biological target: T5, hADAM 10 (Homo sapiens, UniProt O14672); experiment: Residual enzyme activity of other metalloproteases; conditions: read-out: Residual enzyme activity ADAM10; for remaining activity at 10 µM: 10 μM inhibitor; for remaining activity at 200 µM: 200 μM inhibitor
T5 construct: purchased R&D systems
T5 sequence (O14672 214-748): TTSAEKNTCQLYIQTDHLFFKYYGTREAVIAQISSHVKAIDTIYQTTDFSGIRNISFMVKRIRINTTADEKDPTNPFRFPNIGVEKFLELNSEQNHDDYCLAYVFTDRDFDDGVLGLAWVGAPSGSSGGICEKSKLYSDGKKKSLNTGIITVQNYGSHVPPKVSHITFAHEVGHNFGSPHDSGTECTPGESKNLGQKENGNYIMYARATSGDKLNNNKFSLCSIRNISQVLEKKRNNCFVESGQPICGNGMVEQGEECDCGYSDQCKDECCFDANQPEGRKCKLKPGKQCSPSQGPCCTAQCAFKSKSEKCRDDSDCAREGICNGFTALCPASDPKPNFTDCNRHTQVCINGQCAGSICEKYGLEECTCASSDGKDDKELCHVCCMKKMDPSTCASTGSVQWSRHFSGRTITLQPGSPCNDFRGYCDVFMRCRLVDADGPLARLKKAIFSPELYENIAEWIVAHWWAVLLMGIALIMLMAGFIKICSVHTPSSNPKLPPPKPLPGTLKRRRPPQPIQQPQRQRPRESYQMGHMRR
Procedure: as §1, with “The determination of enzymatic activity was based on the cleavage of internally quenched peptide substrates. A typical” for “A typical”

hADAM 17 = biological target: T6, hADAM 17 (Homo sapiens, UniProt P78536); experiment: Residual enzyme activity of other metalloproteases; conditions: read-out: Residual enzyme activity ADAM17; for remaining activity at 10 µM: 10 μM inhibitor; for remaining activity at 200 µM: 200 μM inhibitor
T6 construct: purchased R&D systems
Procedure: as §1, with “The determination of enzymatic activity was based on the cleavage of internally quenched peptide substrates. A typical” for “A typical”

T6 sequence (P78536 215-824): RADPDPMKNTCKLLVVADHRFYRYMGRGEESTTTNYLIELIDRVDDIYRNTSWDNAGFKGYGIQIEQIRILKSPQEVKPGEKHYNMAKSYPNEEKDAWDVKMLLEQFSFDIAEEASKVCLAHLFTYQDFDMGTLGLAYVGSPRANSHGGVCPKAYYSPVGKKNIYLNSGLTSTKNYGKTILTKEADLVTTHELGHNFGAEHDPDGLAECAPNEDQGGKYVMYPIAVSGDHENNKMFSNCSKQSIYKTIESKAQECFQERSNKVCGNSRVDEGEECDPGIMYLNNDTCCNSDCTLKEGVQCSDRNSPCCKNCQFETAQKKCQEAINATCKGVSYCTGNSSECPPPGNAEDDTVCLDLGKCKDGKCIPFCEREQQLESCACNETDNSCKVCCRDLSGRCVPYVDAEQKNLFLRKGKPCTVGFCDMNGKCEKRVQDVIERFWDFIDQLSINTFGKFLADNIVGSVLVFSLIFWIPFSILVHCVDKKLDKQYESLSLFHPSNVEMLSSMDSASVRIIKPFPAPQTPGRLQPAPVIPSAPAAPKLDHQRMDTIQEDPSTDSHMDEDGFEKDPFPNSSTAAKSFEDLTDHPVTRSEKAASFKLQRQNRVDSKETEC
T4 sequence (P14780 107-707 limits assumed): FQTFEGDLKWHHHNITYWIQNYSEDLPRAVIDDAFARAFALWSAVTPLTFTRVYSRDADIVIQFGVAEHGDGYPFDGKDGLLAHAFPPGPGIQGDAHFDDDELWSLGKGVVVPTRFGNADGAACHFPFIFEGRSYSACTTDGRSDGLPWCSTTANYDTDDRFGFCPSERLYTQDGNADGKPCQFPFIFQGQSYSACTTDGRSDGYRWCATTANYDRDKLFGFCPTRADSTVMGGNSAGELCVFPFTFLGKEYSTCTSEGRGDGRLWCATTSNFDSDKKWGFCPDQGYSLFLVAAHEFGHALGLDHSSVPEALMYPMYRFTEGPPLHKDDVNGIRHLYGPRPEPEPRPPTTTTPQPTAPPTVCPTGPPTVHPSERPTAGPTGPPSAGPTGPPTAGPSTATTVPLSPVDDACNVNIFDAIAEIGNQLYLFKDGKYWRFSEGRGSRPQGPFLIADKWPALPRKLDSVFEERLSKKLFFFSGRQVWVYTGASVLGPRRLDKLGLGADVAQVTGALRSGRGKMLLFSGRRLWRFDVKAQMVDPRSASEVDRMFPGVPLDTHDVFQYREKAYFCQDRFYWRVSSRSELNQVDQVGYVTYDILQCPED

SMILES | remaining activity at 10 µM (hMMP 2) [%] | remaining activity at 200 µM (hMMP 2) [%] | remaining activity at 10 µM (hMMP 13) [%] | remaining activity at 200 µM (hMMP 13) [%] | remaining activity at 10 µM (hMMP 9) [%] | remaining activity at 200 µM (hMMP 9) [%] | remaining activity at 10 µM (hADAM 10) [%] | remaining activity at 200 µM (hADAM 10) [%] | remaining activity at 10 µM (hADAM 17) [%] | remaining activity at 200 µM (hADAM 17) [%] | Ki (hMeprin β) [nM] | IC50 (hMeprin β) [nM]
O=C(Cc1c(-c2ccc3c(c2)OCO3)n[nH]c1-c1ccccc1)NO [Example 50, 2-[3-(1,3-Benzodioxol-5-yl)-5-phenyl-1H-pyrazol-4-yl]ethanehydroxamic acid] | 41 | 8 | 71 | 10 | 72 | 16 | 59 | 5 | 51 | 5 | 109 | 118
COc1ccc(-c2n[nH]c(-c3ccccc3)c2CC(=O)NO)cc1OC [Example 49, 2-[3-(3,4-Dimethoxyphenyl)-5-phenyl-1H-pyrazol-4-yl]ethanehydroxamic acid] | 83 | 26 | 101 | 18 | 90 | 44 | 87 | 13 | 65 | 6 | 83 | 84
O=C(Cc1c(-c2ccccc2)nn(Cc2ccc3c(c2)OCO3)c1-c1ccccc1)NO [Example 43, 2-[1-(1,3-Benzodioxol-5-ylmethyl)-3,5-diphenyl-1H-pyrazol-4-yl]ethanehydroxamic acid] | 77 | 60 | 78 | 51 | 74 | 60 | 69 | 39 | 21 | 4 | 305 | 310
O=C(Cc1c(-c2ccccc2)noc1-c1ccccc1)NO [Example 2, 2-(3,5-Diphenylisoxazol-4-yl)ethanehydroxamic acid] | 87 | 34 | 80 | 31 | 86 | 16 | 80 | 22 | 62 | 9 | 584 | 586
O=C(CCc1c(-c2ccccc2)noc1-c1ccccc1)NO [Example 4, 3-(3,5-Diphenylisoxazol-4-yl)propanehydroxamic acid] | 98 | 74 | 79 | 66 | 89 | 39 | 75 | 21 | 75 | 24 |  | 

Continued, in another order:

remaining activity at 10 µM (hMMP 2) [%] | remaining activity at 200 µM (hMMP 2) [%] | remaining activity at 10 µM (hMMP 13) [%] | remaining activity at 200 µM (hMMP 13) [%] | remaining activity at 10 µM (hMMP 9) [%] | remaining activity at 200 µM (hMMP 9) [%] | remaining activity at 10 µM (hADAM 10) [%] | remaining activity at 200 µM (hADAM 10) [%] | remaining activity at 10 µM (hADAM 17) [%] | remaining activity at 200 µM (hADAM 17) [%] | SMILES | Ki (hMeprin β) [nM] | IC50 (hMeprin β) [nM]
97 | 77 | 93 | 68 | 93 | 65 | 66 | 12 | 76 | 27 | O=C(CCc1c(-c2ccccc2)n[nH]c1-c1ccccc1)NO [Example 3, 3-(3,5-Diphenyl-1H-pyrazol-4-yl)propanehydroxamic acid] | 9350 | 9660
85 | 41 | 77 | 54 | 90 | 53 | 89 | 68 | 88 | 56 | O=C(Cn1c(-c2ccccc2)cc2ccccc21)NO [Example 25, 2-(2-Phenylindol-1-yl)ethanehydroxamic acid] |  | 
83 | 1 | 79 | 5 | 92 | 1 | 83 | 29 | 82 | 25 | O=C(Cn1c(-c2ccccc2)ccc1-c1ccccc1)NO [Example 9, 2-(2,5-Diphenylpyrrol-1-yl)ethanehydroxamic acid] |  | 
95 | 70 | 93 | 76 | 99 | 54 | 89 | 83 | 90 | 56 | O=C(Cn1c(-c2ccccc2)nnc1-c1ccccc1)NO [Example 7, 2-(3,5-Diphenyl-1,2,4-triazol-4-yl)ethanehydroxamic acid] |  | 
